These results are taken from patent publication US5116832A, “Penem derivatives production and use thereof” (Suntory Limited, priority 1986, dated 1992).

One data set deals with E. coli KC-14. The data set is described as follows: Therapeutic effect on the experimental infection in mice (E. coli KC-14). In kind it is in vivo. The following applies: Escherichia coli, E. coli KC-14 4.8 × 10^5 colony forming unit intraperitoneally, survival 5 days later, male ICR mice. How it is done: Among the novel compounds as obtained according to the present ivention, the compound (27) was used to carry out a therapy experiment with infected animals. With male mice of ICR strain (5-weeks aged, weighing from 23 to 27 g) being employed as an experimental animal, E. coli KC-14 was inoculate intraperitoneally to the mice, and, 2 hours later, the compound (27) was administered subcutaneously or orally.

Data set [1] concerns the target T1, purified human renal dehydropeptidase (Homo sapiens, UniProt P16444).
T1 sequence (P16444 17-411): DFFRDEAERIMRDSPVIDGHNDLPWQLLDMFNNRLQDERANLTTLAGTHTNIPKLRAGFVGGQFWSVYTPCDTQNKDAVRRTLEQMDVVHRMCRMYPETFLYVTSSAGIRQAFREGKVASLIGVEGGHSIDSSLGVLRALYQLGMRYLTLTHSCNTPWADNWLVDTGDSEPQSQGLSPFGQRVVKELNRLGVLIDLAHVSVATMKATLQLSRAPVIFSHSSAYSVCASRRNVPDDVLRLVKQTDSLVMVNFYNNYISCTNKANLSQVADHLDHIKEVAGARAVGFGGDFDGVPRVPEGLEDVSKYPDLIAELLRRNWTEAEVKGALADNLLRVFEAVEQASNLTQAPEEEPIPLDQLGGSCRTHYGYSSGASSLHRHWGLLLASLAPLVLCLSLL
The data set is described as follows: Stability test against renal dehydropeptidase. In kind it is in vitro ADME. The following applies: for half-life at 100 µM: human, purified renal dehydropeptidase, pH 7. The procedure: Method: 0.325 μ/ml (final concentration) of purified human renal dehydropeptidase and 100 μM (final concentration) of each test compound were heated to 37° C. in 50 mM of Tris/HCl buffer (pH 7.0) and samples were collected at planned hours. Remaining amounts of the compound in the samples were analyzed quantitatively and the half-life period of each compound was calculated.

A further data set deals with S. aureus Smith. Kind of data set: Therapeutic effect on the experimental infection in mice (S. aureus Smith). In kind it is in vivo. The following applies: Staphylococcus aureus, sc, 120 h, S. aureus Smith 3.8 × 10^6 colony forming unit, compound subcut.
A further data set is described as follows: Acute toxicity test. The following applies: mouse, in vivo. An excerpt:
Among the novel compounds as obtained according to the present invention, the compound (27) was selected to conduct an acute toxicity test. Mice of ICR strain (4-weeks aged), being used as an experimental animal, were given the compound through oral and intravenous routes.

`C[C@@H](O)[C@H]1C(=O)N2C(C(=O)O)=C(CC3CCOC3)S[C@H]12` (stereo partly shown) [Compound 27]: the ED50 (usually the dose that gives a 50% effect, or the effect in half of the subjects) with E. coli KC-14 (KC14, 120 h, compound oral 2 hours later) turned out to be 9.5 mg/kg; in the data set with E. coli KC-14 (KC14, ip, 120 h, compound subcut. 2 hours later), 3 mg/kg; in the data set with S. aureus Smith, 1.11 mg/kg. Moreover, in data set [1], the “stability against renal dehydropeptidase (in words)” value is “more stable than Sch 29482 and Imipenem”. Further, in data set [1], the half-life (usually the time in which the quantity being followed falls by half) at 100 µM was 3.81 h. Further, the “survival in acute toxicity test” value in the data set “Acute toxicity test” (iv) and in “Acute toxicity test” (po) was “all found to survive” throughout.

For `C[C@@H](O)[C@H]1C(=O)N2C(C(=O)O)=C(SCCN=CN)C[C@H]12` [Imipenem], the “Remaining amount after 9 hours” value in data set [1] (100 μM test compound, human renal dehydropeptidase, 37° C., 50 mM Tris/HCl buffer pH 7.0, 9 hours) came to 14.7 µg/mL. In addition, in data set [1], the half-life at 100 µM is 3.02 h.

The compound `CCSC1=C(C(=O)O)N2C(=O)[C@H]([C@@H](C)O)[C@H]2S1` [Sch 29482] had a half-life at 100 µM in data set [1] of 1.44 h.
